Read-outs that look alike come from different tables or passages of the source. Where no end group is shown, it is not given here.

For data set [1], the system named is S. aureus (ATCC 25923). The procedure: S. aureus (ATCC 25923, American Type Culture Collection, Manassas, VA) was grown in Nutrient Broth (Difco Laboratories, Detroit, Mich.) at pH 7, 37°C, 24 h with shaking at 200 rpm. The overnight culture was frozen with 20% glycerol and stored at -80°C. The frozen stock was enumerated (CFU/ml) by dilution plating and growth on Nutrient Agar plates.
For anti-microbial assays, frozen enumerated aliquots were thawed and gently mixed immediately before use. In a 96-well plate (BD Falcon 353072), 1 × 10^5 CFU per well bacteria were incubated with different peptide concentrations (in serial dilutions of 1:10 across the plate) in a solution of buffer containing sterile 10 mM sodium phosphate (pH 7.4) and incubated (3 h, 37°C). Negative control wells contained bacteria with no peptide. Serial dilutions were then carried out in sterile 1x PBS (Fisher Scientific) (pH 7) and plated in triplicate on Nutrient Agar plates, incubated (37°C, 24 h) and counted. […] The EC50 was calculated as previously described.
Each experiment was repeated at least twice, and a representative experiment is shown, for clarity. Errors were reported based on the standard deviation from the mean of the log10 EC50 values. 95% confidence intervals were used to determine whether points were statistically different at p = 0.05.

Data set [2] concerns S. aureus attachment to 96-well plate. In words: Biofilm attachment assay. It counts as cell-based, Staphylococcus aureus. As to conditions: peptide 1 μg/ml, 1 h, 37°C, TSB culture OD600 ~1.0, n = 16, Student's t test. As to the method: The attachment of Staphylococcus spp. to solid surfaces is largely seen as an essential step in the formation of biofilm. Since most of the peptides tested in our biofilm assays were capable of inhibiting biofilm formation (except for scrambled LL-37), we investigated a possible mechanism for this action. We incubated scrambled LL-37 (negative control), LL-37, D-LL-37, NA-CATH, and NA-CATH:ATRA1-ATRA1 peptides with S. aureus in a 1 hr attachment assay at peptide concentrations of 1 ug/ml, examining for the initial adherence to the wells of the 96 well tissue-culture treated plate.
Figure 3 Attachment assay of S. aureus in the presence of peptide. We tested scrambled LL-37 (negative control), LL-37, D-LL-37, NA-CATH, and NA-CATH:ATRA1-ATRA1 against S. aureus (1 h, 37°C) at 1 μg/ml, only allowing for the initial adherence to the wells.
Biofilm attachment assays were performed in a 96-well microtiter plate (BD Falcon 353072), as previously described. Overnight cultures of S. aureus were grown in TSB to an optical density (600nm) of ~1.0. 200 μl culture was added to the wells, followed by no peptide, scrambled LL-37 , LL-37, D-LL-37, NA-CATH, or NA-CATH:ATRA1-ATRA1 at 1 μg/ml. […] The wells were washed and OD600 measurements were taken, as in the biofilm production experiments, and the average absorbance for each treatment was determined (n = 16).

The subject of data set [3] is S. aureus. The data set can be described thus: Bacterial growth / MIC in TSB. It counts as cell-based, Staphylococcus aureus. As to conditions: TSB (relatively high salt), peptide concentrations up to the EC50 found in 10 mM sodium phosphate. The procedure:
(§1) C. […] Growth (absorbance at 600 nm) is indicated by gray bars with "0 peptide" control set to 100%. Biofilm detection on a polystyrene 96-well plate at 37°C after 24 h of growth in TSB was detected as the absorbance of crystal violet stain (570 nm). Percent biofilm production is indicated by black bars (n = 6), relative to "0 peptide" control. Each experiment is a representative of at least two independent trials. Error bars indicate the standard deviation from the mean. The asterisk (*) indicates statistically different than the positive control (p < 0.01).
(§2) Biofilm production was measured as previously described with the following modifications. […] The positive control is S. aureus in TSB with no peptide. Six wells were used for each peptide concentration (n = 6). After 24 h, the optical densities (OD) of the wells were taken at 600nm to quantify […]. The biofilm production was measured using the crystal violet stain technique.

In data set [4] the test system is S. aureus biofilm formation. As to conditions: peptide 10 μg/ml, TSB, 24 h, 37°C, polystyrene 96-well plate, crystal violet 570 nm, n = 6, relative to 0 peptide control. The procedure: as §1, §2
All experiments were repeated at least twice, with a representative experiment shown.

The subject of data set [5] is erythrocytes. The following applies: examined up to 200 μg/ml; cited from earlier work. The procedure:
The hemolytic activity of each of the peptides was determined using 2% horse erythrocytes as previously described.

On to KRAKKFFKKLK-NH2 [ATRA-1A], for which the EC50 (usually the concentration that produces a half-maximal response) is 310 nM in data set [1] (EC50 in μg/ml converted with the molecular weight of the TFA salt of the peptide) and 0.73 µg/mL in data set [1] (S. aureus ATCC 25923, 1 × 10^5 CFU per well, 3 h, 37°C, 10 mM sodium phosphate (pH 7.4), % survival by CFU counts, plated in triplicate, representative experiment). Further, the “fold change of activity against S. aureus, ATRA-1A compared to ATRA-1” value in data set [1] (p > 0.05) worked out at 1.4 fold.

As to `CC[C@H](C)[C@H](NC(=O)[C@H](CCCCN)NC(=O)[C@H](CCC(=O)O)NC(=O)[C@H](CCCCN)NC(=O)[C@H](CO)NC(=O)[C@H](CCCCN)NC(=O)[C@H](CCCNC(=N)N)NC(=O)[C@H](Cc1ccccc1)NC(=O)[C@H](Cc1ccccc1)NC(=O)[C@H](CC(=O)O)NC(=O)CNC(=O)[C@H](CC(C)C)NC(=O)[C@@H](N)CC(C)C)C(=O)NCC(=O)N[C@@H](CCCCN)C(=O)N[C@@H](CCC(=O)O)C(=O)N[C@@H](Cc1ccccc1)C(=O)N[C@@H](CCCCN)C(=O)N[C@@H](CCCNC(=N)N)C(=O)N[C@H](C(=O)N[C@H](C(=O)N[C@@H](CCC(N)=O)C(=O)N[C@@H](CCCNC(=N)N)C(=O)N[C@H](C(=O)N[C@@H](CCCCN)C(=O)N[C@@H](CC(=O)O)C(=O)N[C@@H](Cc1ccccc1)C(=O)N[C@@H](CC(C)C)C(=O)N[C@@H](CCCNC(=N)N)C(=O)N[C@@H](CC(N)=O)C(=O)N[C@@H](CC(C)C)C(=O)N[C@H](C(=O)N1CCC[C@H]1C(=O)N[C@@H](CCCNC(=N)N)C(=O)N[C@H](C(=O)N[C@@H](CCC(=O)O)C(=O)N[C@@H](CO)C(=O)O)[C@@H](C)O)C(C)C)[C@@H](C)CC)C(C)C)[C@@H](C)CC` [LL-37], the “attachment of S. aureus to the wells” value in data set [2] was “significantly decreased”. Besides, the “bacterial growth (OD600 at 24 hours)” value in data set [3] is recorded as “not decreased”. In data set [4], the “inhibition of biofilm formation” value is ~ 40%. Also, in data set [5], the “hemolytic activity” value is recorded as “similarly low levels”.

The record behind these values is PMC3397408, “Natural and synthetic cathelicidin peptides with anti-microbial and anti-biofilm activity against Staphylococcus aureus” (BMC Microbiology, 2011).
